Columns and labels:
diabetic patients = test: 12-week treatment of diabetic patients: urine glucose, HbA1c, urine volume (Table 5); format: in vivo, human
type 2 diabetic patients = system: type 2 diabetic patients
Excerpt: C-aryl glucoside SGLT2 inhibitors are known to reduce blood glucose levels in diabetic patients, see U.S. Pat. No. 6,774,112, which is incorporated herein by reference in its entirety, but not known to increase urine volume. […] Metformin reduces plasma glucose concentration by non-renal mechanisms and is not known to induce glucosuria. […] On day 1 and day 14, the patients were examined for the levels of glucosuria and changes in urine volumes.

healthy subjects = details: healthy subjects, 5, 20, 50 or 100 mg, within 24 hours, indirect comparison
patients with diabetes = details: patients with diabetes, 5, 25 or 100 mg
Excerpt: The levels of urine glucose of all subjects are shown in the plot and the mean urine glucose is in the darker lines.

[1] = system: human SGLT2 (hSGLT2) relative to human SGLT1 (hSGLT1); details: ratio of EC50 in favor of SGLT2
Protocol: Selectivity for SGLT2 of a given inhibitor can be determined by comparing the EC50 values measured in the SGLT1 and SGLT2 assay. […] Cells expressing hSGLT1 or hSGLT2 were maintained using standard cell culture techniques. Assays for sodium-dependent glucose transport in 96-well plates were initiated by adding 100 μl/well of protein-free assay buffer containing sodium (Hepes/Tris pH 7.4, 137 mM NaCl, 5.4 mM KCl, 2.8 mM CaCl2, 1.2 mM MgSO4), 10 μM ^14C-AMG and inhibitor or dimethyl sulfoxide (DMSO) vehicle, and plates were incubated for 2 h at 37° C. Sodium-dependent ^14C-AMG uptake was calculated by subtracting the counts per minute (CPM) observed under sodium-free uptake conditions from the counts observed under sodium-containing conditions. Inhibitors were assayed at various concentrations in triplicate in the presence of sodium, and the percent inhibition was calculated by comparing CPM in inhibitor-containing wells with CPM in wells containing only DMSO vehicle. Phlorizin, a known SGLT inhibitor, was evaluated in parallel in every assay. A dose-response curve was fitted to an empirical four-parameter model using XL Fit (IDBS, Guilford, UK) to determine the inhibitor concentration at half-maximal response (EC50). SGLT2 selectivity is represented as a ratio of EC50 in favor of SGLT2.

[2] = 2.5-50 mg, after 12 weeks of treatment

CN(C)C(=N)N=C(N)N [Metformin, reference compound]
HbA1c reduction from baseline (diabetic patients; 1500 mg metformin, 12 weeks): 0.73%

CCOc1ccc(Cc2cc([C@@H]3O[C@H](CO)[C@@H](O)[C@H](O)[C@H]3O)ccc2Cl)cc1 [dapagliflozin PGS, dapagliflozin (S)-propylene glycol solvate]
fasting serum glucose (FSG) levels (type 2 diabetic patients; two-week period): Dose-dependent reduction
postprandial glucose levels in oral glucose tolerance tests (OGTT) (type 2 diabetic patients; two-week period): reduced
urine volumes (type 2 diabetic patients; two-week period): no increase
urinary glucose levels within a 24-hour time period (type 2 diabetic patients; versus placebo, FIG. 3): increased
OGT (diabetic patients; [2]): improved
reduced HbAlC levels (diabetic patients; [2]): 0.71-0.9%
glucosuric effect, loss of calories in the urine as compared to GSK 869,682 (healthy subjects): significant loss of calories in the urine
urine glucose excretion compared to placebo (patients with diabetes): higher

CCOc1ccc(Cc2cc([C@@H]3O[C@H](CO)[C@@H](O)[C@H](O)[C@H]3O)ccc2Cl)cc1 [dapagliflozin]
selectivity for SGLT2 relative to SGLT1 [1]: High selectivity for SGLT2
